Data on 9 compounds can be found in patent publication US7476680B2, “Substituted heterocyclic compounds for treating multidrug resistance” (H. Lee Moffitt Cancer Center & Research Institute, Inc., priority 2000, dated 2009).

The target of test [1] is T1, MDR1-ATPase (Homo sapiens, UniProt P08183).
T1 construct: made in house; host or cells: Sf9 insect cells (baculovirus); isolated membranes
The test is described as follows: MDR1 ATPase assay (substrate potential for MDR1). It is filed as biochemical. The conditions noted are these: isolated Sf9 cell membranes; for Ki: half-maximum inhibition of MDR1-ATPase stimulated by 30-40 micromolar verapamil. The source says:
Method for Measuring Substrate Potential for MDR1 (MDR1 ATPase assay)
Recombinant baculovirus carrying the human MDR1 gene was generated and Sf9 cells infected with virus. The virus-infected cells were harvested and their membranes isolated. MDR1-ATPase activity of the isolated Sf9 cell membranes was estimated by measuring inorganic phosphate liberation as previously described (B. Sarkadi, J. Biol. Chem., 1992, 267:4854-4858). The differences between the ATPase activities measured in the absence and presence of 100 micromolar vanadate were determined as activity specific to MDR1. MDR modulator concentrations causing half-maximum activation (Ka) or half-maximum inhibition of the MDR1-ATPase stimulated by 30-40 micromolar verapamil (Ki) were determined.

Test [2] deals with NIH-MDR1-G185 cells. The test is described as follows: Fluorescent substrate accumulation assay (BODIPY-FL Taxol). The test is classed as cell-based. The following applies: BODIPY-FL Taxol 500 nM, modulator 10 micromolar, 40 min at 37° C.; fluorescence with modulator / without modulator. How it is done: Fluorescent Substrate Accumulation Assay
NIH-MDR1-G185 cells (obtained from M. Gottesman, NIH) were harvested and resuspended in RPMI-1640 containing L-glutamine, 10% Cosmic Calf Serum and penicillin-streptomycin. Cell suspension aliquots of 175 microliters (1×10^5 cells) were added to individual wells of a 96 well microtiter plate and preincubated for 15 min at 37° C. with 20 microliters MDR modulator diluted in cell culture media to give a final concentration of 10 micromolar. Control wells received no modulating agent. BODIPY-FL Taxol (Molecular Probes, Eugene, Oreg.) was added to each well in 10 microliter aliquots to give a final concentration of 500 nM and cells were incubated for 40 min at 37° C. Cells were centrifuged at 100×g for 5 min at 4° C. and the cell pellet washed with 200 microliters cold PBS to remove fluorescent medium from wells. Cells were centrifuged once more, media removed, and cells resuspended in 200 microliters cold PBS. Fluorescence accumulation was measured in a fluorescence plate reader fitted with an excitation filter of 485 nm and an emission filter of 538 nm. BODIPY-FL taxol accumulation in the cells was calculated as follows: Accumulation Index=(fluorescence in NIH-MDR1-G185 cells in the presence of modulator)/(fluorescence in NIH-MDR1-G185 cells in absence of modulator)

The mark [3] stands for this setting: concentration causing half-maximum activation of MDR1-ATPase.

Bounds are passed on as bounds.

T1 sequence (P08183 whole entry): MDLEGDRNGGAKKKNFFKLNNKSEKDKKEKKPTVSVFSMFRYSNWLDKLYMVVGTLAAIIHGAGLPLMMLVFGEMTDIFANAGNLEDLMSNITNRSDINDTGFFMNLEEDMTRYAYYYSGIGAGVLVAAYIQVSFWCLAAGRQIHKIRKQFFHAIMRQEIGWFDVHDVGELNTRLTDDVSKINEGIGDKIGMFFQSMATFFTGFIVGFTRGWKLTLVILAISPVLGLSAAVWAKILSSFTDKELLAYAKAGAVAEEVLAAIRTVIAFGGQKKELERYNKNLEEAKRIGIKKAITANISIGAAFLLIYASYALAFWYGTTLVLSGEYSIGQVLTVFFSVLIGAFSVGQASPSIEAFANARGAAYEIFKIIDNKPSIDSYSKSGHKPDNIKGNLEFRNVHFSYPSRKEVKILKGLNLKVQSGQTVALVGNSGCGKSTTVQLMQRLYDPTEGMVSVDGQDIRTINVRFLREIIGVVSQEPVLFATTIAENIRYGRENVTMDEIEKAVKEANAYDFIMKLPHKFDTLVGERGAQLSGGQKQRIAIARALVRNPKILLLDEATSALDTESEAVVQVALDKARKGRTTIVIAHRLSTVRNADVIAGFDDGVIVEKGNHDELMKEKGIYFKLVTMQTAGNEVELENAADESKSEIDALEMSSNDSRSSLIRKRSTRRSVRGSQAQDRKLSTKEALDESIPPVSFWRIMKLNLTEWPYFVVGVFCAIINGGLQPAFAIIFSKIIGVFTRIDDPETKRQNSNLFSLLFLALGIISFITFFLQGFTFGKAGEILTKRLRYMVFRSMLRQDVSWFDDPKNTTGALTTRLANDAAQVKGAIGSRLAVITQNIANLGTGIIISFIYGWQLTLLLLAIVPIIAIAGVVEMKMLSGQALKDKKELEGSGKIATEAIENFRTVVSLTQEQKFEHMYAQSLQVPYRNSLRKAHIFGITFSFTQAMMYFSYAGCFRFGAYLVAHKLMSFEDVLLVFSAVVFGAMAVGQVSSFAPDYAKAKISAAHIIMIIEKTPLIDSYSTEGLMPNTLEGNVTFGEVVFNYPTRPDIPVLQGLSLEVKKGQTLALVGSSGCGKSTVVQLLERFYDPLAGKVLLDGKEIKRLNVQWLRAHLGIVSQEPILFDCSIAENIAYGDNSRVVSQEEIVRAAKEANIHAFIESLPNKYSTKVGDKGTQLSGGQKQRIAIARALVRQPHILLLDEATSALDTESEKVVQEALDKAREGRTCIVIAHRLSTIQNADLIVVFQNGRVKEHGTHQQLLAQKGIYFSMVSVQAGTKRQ

Turning to `O=C(NC1CCN(C[C@H](O)COc2cccc3ncccc23)CC1)C(CCCc1ccccc1)CCCc1ccccc1` (stereo in doubt) [Example 25, 5-phenyl-2-(3-phenyl-propyl)-pentanoic acid {1-[2-hydroxy-3-(quinolin-5-yloxy)-propyl]-piperidin-4-yl}-amide], the EC50 in test [1] (concentration causing half-maximum activation of MDR1-ATPase, read-out: Substrate Potential Ka(MDR1-ATPase)) was found to be 5 nM. The compound also yielded a Ki in test [1] of 10 nM.
On to `O=C(NC(CCCc1ccccc1)CCCc1ccccc1)C1CCN(C[C@@H](O)COc2cccc3ncccc23)CC1` [Example 5, (R)-1-[2-hydroxy-3-(quinolin-5-yloxy)-propyl]-piperidine-4-carboxylic acid [4-phenyl-1-(3-phenyl-propyl)-butyl]-amide], for which the “Substrate Potential Ka(MDR1-ATPase)” value in test [1] (setting [3]) is listed as “no activation”. Besides, the inhibition constant Ki in test [1] was 300 nM.
`O=C(NCCCCc1ccccc1)[C@H]1CN(C[C@@H](O)COc2cccc3ncccc23)CC[C@H]1C(=O)NCCCCc1ccccc1` (stereo in doubt) [Example 11, cis-(R)-1-[2-hydroxy-3-(quinolin-5-yloxy)-propyl]-piperidine-3,4-dicarboxylic acid bis-[(4-phenyl-butyl)-amide]]: the “Substrate Potential Ka(MDR1-ATPase)” value in test [1] (setting [3]) is given as “no activation”. The compound also came in with a Ki in test [1] of 20 nM.
Consider `CC1(C(=O)NC(CCCc2ccccc2)CCCc2ccccc2)CCN(C[C@@H](O)COc2cccc3ncccc23)CC1` [Example 50, (R)-1-[2-hydroxy-3-(quinolin-5-yloxy)-propyl]-methylpiperidine-4-carboxylic acid [4-phenyl-1-(3-phenyl-propyl)-butyl]-amide], for which the “Accumulation Index” value in test [2] is 10.
Turning to `COc1cc(OC[C@H](O)CN2CCCC(C(=O)NC(CCCc3ccccc3)CCCc3ccccc3)C2)cc(OC)c1OC` (stereo partly shown) [Example 15], in test [1] (setting [3]), the “Substrate Potential Ka(MDR1-ATPase)” value is “weak activation”. The compound further came in with a Ki in test [1] greater than 50000 nM.
On the same counts, the results for `O=C(NC(CCCc1ccccc1)CCCc1ccccc1)C1CCCN(C[C@@H](O)COc2cccc3ncccc23)C1` (stereo partly shown) [Example 14] are “no activation” and 300 nM.
Take “(R)-1-[2-hydroxy-3-(quinolin-5-yloxy)-propyl]-piperidine-4-carboxylic acid [4-(3-pyridyl-1-(3-pyridyl-propyl)-butyl]-amide [Example 53]”: the “Accumulation Index” value in test [2] is recorded as 8.
With `COc1cc(C(=O)C(=O)N2CCCC(C(=O)NC(CCCc3ccccc3)CCCc3ccccc3)C2)cc(OC)c1OC` (stereo not shown) [Example 26, 1-(3,4,5-trimethoxyglyoxyl)-piperidine-3-carboxylic acid [4-phenyl-1-(3-phenyl-propyl)-butyl]-amide], the “Substrate Potential Ka(MDR1-ATPase)” value in test [1] (setting [3]) was “no activation”. In addition, the inhibition constant Ki in test [1] was 500 nM.
On the same counts, the results for `O=C(C1CCN(C[C@@H](O)COc2cccc3ncccc23)CC1)N(Cc1ccccc1)Cc1ccccc1` [Example 36, (R)-1-[2-hydroxy-3-(quinolin-5-yloxy)-propyl]-piperidine-4-carboxylic acid dibenzyl amide] are “no activation” and 1000 nM.
